Experimental data published in patent US20260217983A1, “SULFONIUM SALT PHOTOINITIATORS AND METHODS OF LED CURING A COMPOSITION WITH SAID SULFONIUM SALT PHOTOINITIATORS” (ARKEMA FRANCE, priority 2022, published 2026).

Tests used:
[1] = Colour index 'b' of formulations before and after polymerization; format: physicochemical; details: UViCure S105E, thin samples (20 μm), under air, 300 s irradiation
Description: The low yellowing characteristics can be measured by the Colour index ‘b’ value on cured films.
Formulations comprising the photoinitiators and neat UViCure S105E resin were prepared as described at example 2.

[2] = UV Vis spectra measurement; format: physicochemical; details: order 5>1>2 (comp.) ~4 (comp.); 10 ppm in acetonitrile
Excerpt: UV-Vis spectrum of each sample was taken with a Shimadzu UV1800 spectrophotometer using a 1.0 cm path of cuvette quartz cell in accordance with ASTM E169-04, and scanning the spectrum over the wavelength range of 450 to 200 nm.

[3] = FTIR-ATR cure test of cationic formulations (epoxide, oxetane conversion, 1100 cm^-1 peak growth); details: 405 nm, cationic systems
Description: Matrixes: In a 1000 mL of metal can, formulation matrix was charged according to the percentage in Table 12. The 1000-1005 g mixture of each matrix sample was prepared and mixed by mechanical mixer for about 1 hour around 60° C. until the solution became clear. Formulations: In a white max 50 jar from FlackTek Inc., photoinitiator and propylene carbonate were loaded at first, mixed by hand with stainless steel spatula, placed in 60° C. oven for about 1 h, mixed again until it became clear. Then, formulation matrix was charged according to the percentage in one of Table 13 to 21. The […]-52.60 g mixture of each sample was prepared and mixed for 3 minutes at 3000 RPM in Speed Mixer from FleackTec Inc. Then, all jars were placed in 60° C. oven for about 2 h, taken out and immediately mixed for another 2 minutes until the solution became clear.
A Fourier Transform Infrared (FTIR) with an Attenuated Total Reflection (ATR) setup was used. All polymerization rate measurements were performed using Nicolet iS50 FT-IR Spectrometer from Thermo Scientific, equipped with a standard DLaTGS detector. A lamp holder for the ART platform of FTIR unit can be customized and printed from Arkema N3xtDimention® engineered resin N3D-TOUGH784 in order to ensure precisely fit of a 365 nm lamp Accucure ULM-2-365 or a 405 nm lamp Accucure ULM-2-405 from Digital Light Labs. On the bottom of this lamp holder, a dry air channel is built in to allow air uniformly blowing over sample surface, the gas flow rate can be controlled over a rotameter. The LED light was manually triggered by Ultraviolet illumination & Measurement System. LED light exposure can be programed by AccuCure software. For measurement, 25 μL of liquid sample was placed in the center of an ATR crystal. 3 mil of thin film was prepared by a customized coating applicator (3 mil WFM, G1046 from BYK). The LED lamp with holder was place on the top of ART platform. Then FTIR scan was initiated to collect liquid IR spectrum at first. Each IR spectrum of a specific exposure time at 10 mW/cm^2 of LED light were collected. Measurements of acrylate conversion were taken at the peak height under the reference peak around 1727 cm^−1; the acrylate peak of SR833S at approximately 1407 cm^−1, the epoxide peak of UviCure S105 at approximately 790 cm^−1, and the oxetane peak of UViCure S130 at approximately 970 cm^−1 were also measured. Since the ring opening of both epoxide and oxetane generated C—O—C bond, the growth of C—O—C IR peak height at ~1100 cm^−1 was monitored as well. The resulting of peak 1100 cm^−1 growth rate could be calculated to assess total cationic cure speed. Peak heights were determined using the same baseline where a baseline is chosen to be the two lowest points between 600 cm^−1 and 1800 cm^−1. The peak height under the peak and above the baseline was then determined. The integration limits for liquid and the cured sample are not identical but are similar, especially for the reference peak.
The ratios of the acrylate peak height, epoxide peak height, ring opening peak height from both epoxide and oxetane to the reference peak height were determined for both the liquid and the cured samples. Degree of cure or conversion or peak growth rate, expressed as percentage reacted acrylate or epoxide or ring opening of both epoxide and oxetane, was calculated from the equation below: […]
Where Rliq is the peak height ratio of the liquid sample and Rc is the peak height ratio of the LED cured sample. The resulting acrylate and epoxide conversions or C—O—C growth rates were collected and listed in Tables 13 to 21, plotted in FIG. 1 to 8 and FIG. 10.

[4] = Transmittance at 0.01% w/v in propylene carbonate; format: physicochemical
Description: The samples were prepared at 0.01% w/v in propylene carbonate.

[5] = Real time FT-IR curing performance at 405 nm in UViCure S105/TMPTA (1:1); details: LED @405 nm (110 mW/cm^2), 20 μm thickness, laminated
Description: (§1) The curing performance of individual products prepared above was assessed using real time FT-IR measurement. The photoinitiators were dissolved either in neat trimethylolpropane triacrylate (TMPTA; available as SR351 from Sartomer) or in a 1:1 (w/w) mixture of TMPTA and UViCure S105 as indicated, applied onto the FT-IR measurement plate, laminated to prevent oxygen inhibition, and irradiated with the indicated LED light source. For the epoxy component, the polymerization rate and final reactive group conversion were determined by monitoring the change of the relevant infrared band near 900 cm^−1 corresponding to an epoxide ring. For the acrylate component, the C═C stretch band near 1625 cm^−1 was used.

[6] = Real time FT-IR curing performance at 405 nm in neat TMPTA; details: 20 μm thickness, laminated; for Acrylate Polymerization rate Rp/[M0]*100: LED @405 nm (110 W/cm^2); for Acrylate Final conversion: LED @405 nm (110 mW/cm^2)
Description: as §1

[7] = Working-curve measurement (Ec, Dp) on 405 nm DLP printers; details: at lower concentration
Description: Working-curves were printed on the 405 nm~3 mW/cm^2 Flashforge Hunter DLP printer or on the 405 nm~12 mW/cm^2 B9 Core 550 DLP printer from B9Creation. Various energy dosages were irradiated in sections of the build area (without a build platform installed), resulting in individual squares or thin films being cured. The thickness of the individual thin films were measured with a low force digital caliper+comparator stand from Mitutoyo to determine the cure depths. A plot of the cure depths vs. the logarithm of energy dosages was used to determine the critical exposure (Ec, mJ/cm^2) and penetration depth (Dp, mils).

Row | Compound | Colour index ‘b’ value After Polymerization ([1]; LED @365 nm (120 mW/cm^2)) | Colour index ‘b’ value Before Polymerization ([1]; LED @365 nm (120 mW/cm^2)) | Colour index ‘b’ value After Polymerization ([1]; LED @385 nm (160 mW/cm^2)) | Colour index ‘b’ value Before Polymerization ([1]; LED @385 nm (160 mW/cm^2)) | UV absorption at 405 nm [2] | cationic cure compared with 2 (comp.) or 4 (comp.) [3] | epoxide, oxetane and total cationic cure compared with Omnicat550 and SC992 [3] | % Transmittance at 355 nm [4] [%] | % Transmittance at 420 nm [4] [%] | Acrylate Final conversion [5] [%] | Acrylate Polymerization rate Rp/[M0]*100 [5] [s⁻¹] | Epoxy Final conversion [5] [%] | Epoxy Polymerization rate Rp/[M0]*100 [5] [s⁻¹] | Acrylate Polymerization rate Rp/[M0]*100 [6] [s⁻¹] | Acrylate Final conversion [6] [%] | Dp and Ec compared with 4 (comp.) [7]
1 | CC(C)c1ccc2sc3ccc(-[s+]4c5ccccc5c(=O)c5cc(C(C)C)ccc54)cc3c(=O)c2c1 (centres unmarked) [Photoinitiator 1, 9-oxo-10-[9-oxo-7-(propan-2-yl)-9H-thioxanthen-2-yl]-2-(propan-2-yl)-9H-thioxanthen-10-ium hexafluorophosphate] | 8.81 | 6.38 | 8.71 | 6.13 | much higher than Omnicat 550 and SC 992S | performed slightly better than 2 (comp.) or 4 (comp.) | better epoxide cure, oxetane cure as well as total cationic cure than both Omnicat550 and SC992 | 8.0 | 90.3 | 83 | 10.57 | 47 | 8.12 | 3.43 | 38 | 
2 | Cc1ccc([S+](c2ccc(C(=O)c3ccccc3)cc2)c2ccc3sc4ccc(C(C)C)cc4c(=O)c3c2)cc1 (centres unmarked) [Photoinitiator 2, (4-benzoylphenyl)(4-methylphenyl)[9-oxo-7-(propan-2-yl)-9H-thioxanthen-2-yl]sulfonium Hexafluorophosphate] | 6.31 | 6.48 | 6.26 | 6.49 | much higher than Omnicat 550 and SC 992S |  | better epoxide cure, oxetane cure as well as total cationic cure than both Omnicat550 and SC992 | 19.7 | 94.3 | 81 | 11.56 | 45 | 6.12 | 4.58 | 53 | 
3 | CCc1cc(CC)c2sc3ccc([S+](c4ccc(C)cc4)c4ccc(C(=O)c5ccccc5)cc4)cc3c(=O)c2c1 (centres unmarked) [Photoinitiator 4, (4-benzoylphenyl)(5,7-diethyl-9-oxo-9H-thioxanthen-2-yl)(4-methylphenyl)sulfonium Hexafluorophosphate] | 6.05 | 6.33 | 6.09 | 6.28 | much higher than Omnicat 550 and SC 992S |  | better epoxide cure, oxetane cure as well as total cationic cure than both Omnicat550 and SC992 | 6.8 | 83.3 | 83 | 12.20 | 45 | 6.29 | 5.70 | 64 | 
4 | CCCOc1ccc(Cl)c2c(=O)c3cc(-[s+]4c5ccccc5c(=O)c5c(Cl)ccc(OCCC)c54)ccc3sc12 (centres unmarked) [Photoinitiator 5, 1-chloro-10-(8-chloro-9-oxo-5-propoxy-9H-thioxanthen-2-yl)-9-oxo-4-propoxy-9H-thioxanthen-10-ium Hexafluorophosphate] | 4.92 | 5.02 | 4.91 | 5.35 | much higher than Omnicat 550 and SC 992S | performed slightly better than 2 (comp.) or 4 (comp.) | better epoxide cure, oxetane cure as well as total cationic cure than both Omnicat550 and SC992 | 0.8 | 64.8 | 70 | 6.03 | 44 | 3.87 | 2.01 | 51 | lower Op and higher Ec than 4 (comp.)
